Results as given in publication PMC3814362 (Nucleic Acids Research, 2013).

Key:
HflX-ND1 = target: T1, HflX-ND1 (Escherichia coli, UniProt P25519); assay: mant fluorescence emission; type: binding; conditions: labelled compound; 5 µM protein, 1 µM mant-ATP, pH 8.0, 5 mM MgCl2
T1 sequence (P25519 1-120): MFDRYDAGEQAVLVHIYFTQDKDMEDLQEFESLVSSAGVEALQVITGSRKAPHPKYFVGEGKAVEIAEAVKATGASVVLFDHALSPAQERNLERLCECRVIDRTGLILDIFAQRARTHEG

[1] = target: T2, HflX-FL; HflX-WT (EcHflX) (Escherichia coli, UniProt P25519); assay: mant fluorescence emission; type: binding; conditions: labelled compound; 5 µM protein, 1 µM mant-ATP, pH 8.0, 5 mM MgCl2
T2 sequence (P25519 1-426): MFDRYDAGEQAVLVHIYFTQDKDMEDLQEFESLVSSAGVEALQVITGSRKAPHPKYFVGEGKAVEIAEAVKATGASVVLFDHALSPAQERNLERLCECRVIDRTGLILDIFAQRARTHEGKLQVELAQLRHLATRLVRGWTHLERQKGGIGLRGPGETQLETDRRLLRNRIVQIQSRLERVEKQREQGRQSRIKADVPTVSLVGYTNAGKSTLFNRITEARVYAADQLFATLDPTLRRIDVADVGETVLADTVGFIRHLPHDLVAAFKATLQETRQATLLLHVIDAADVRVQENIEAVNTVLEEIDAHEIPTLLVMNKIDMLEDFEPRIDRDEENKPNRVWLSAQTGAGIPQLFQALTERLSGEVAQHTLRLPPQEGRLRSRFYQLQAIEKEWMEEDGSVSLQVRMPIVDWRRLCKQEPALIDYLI

CNc1ccccc1C(=O)O[C@H]1[C@@H](O)[C@H](n2cnc3c(N)ncnc32)O[C@@H]1COP(=O)(O)OP(=O)(O)OP(=O)(O)O [mant-ATP]
mant fluorescence emission (ex 355 nm) (HflX-ND1): HflX-ND1, like the full-length protein, binds mant-ATP
mant fluorescence emission (ex 355 nm) [1]: HflX-ND1, like the full-length protein, binds mant-ATP
